# Results taken from paper PMC6572135, “N-Methyl-D-glucamine–Calix[4]resorcinarene Conjugates: Self-Assembly and Biological Properties” (Molecules, 2019).
# Tests used:
# C.albicans 855–653 [1] = assay: Fungistatic activity (MIC), dilution method; format: cell-based; settings: Candida albicans; C.albicans 855–653, fungistatic activity; read-out: Minimal Inhibiting Concentration (MIC)
# Procedure: (§1) In vitro bacteriostatic and fungistatic activities of the macrocycles were evaluated against pathogenic representatives of Gram-positive bacteria (Staphylococcus aureus 209p, Bacillus cereus 8035), Gram-negative bacteria (Pseudomonas aeruginosa 9027, Escherichia coli F-50), and yeast (Trichophyton mentagrophytes var. gypseum 1773, Aspergillus niger BKMF-1119, Candida albicans 885–653). Minimal inhibitory concentrations (MICs) were estimated by conventional dilution methods for bacteria and fungi. The antibacterial and antifungal assays were performed in Hottinger broth (HiMe-dia Laboratories Pvt. Ltd. Mumbai, India) and Sabouraud dextrose broth (HiMedia Laboratories Pvt. Ltd.) (bacteria 3 × 10^5 cfu/mL and yeast 2 × 10^4 cfu/mL). The bactericidal and fungicidal activities were determined as described earlier. The tests were repeated three times.
# C.albicans 855–653 [2] = assay: Fungicidal activity (MFC); format: cell-based; settings: Candida albicans; C.albicans 855–653, fungicidal activity; read-out: Minimal Fungicidal Concentration (MFC)
# Procedure: as §1
# [3] = Transmission electron microscopy of aggregates; format: physicochemical; settings: aqueous solution mixture of GCR-2 with two-fold excess of MG
# Procedure: In a mixed 1 mM GCR-2–2 mM MG system particles with a hydrodynamic diameter of 2 nm were formed, which correlates well with the size of single macrocycle molecules. In a 15 mM GCR-2–30 mM MG mixed system particles with 3.8 nm diameter were formed. Such a size approximately corresponds to double the length of a GCR-2 molecule. This indicates of formation of spherical micelles by virtue of lateral packaging of aromatic walls by head-to-head contact due to π–stacking and hydrogen bonds between neighboring GCR-2 molecules as depicted in Figure 6b. Such an aggregation mode is similar to the self-assembly behavior described for other calixarenes. The zeta-potential of obtained particles is −17.4 mV which is attributable primarily to hydroxylic groups. The formation of little spherical particles was further affirmed by TEM images (Figure 5b). In comparison with the nanostructure of GCR-1 aggregates, smaller nanostructures with a diameter of ca. 5 ± 2 nm were formed in the aqueous solution mixture of GCR-2, which was in good accordance with the DLS measurements.
# TEM images were recorded on a HT7700 TEM instrument (Hitachi, Tokyo, Japan) operated at 110 kV accelerating voltage. The samples with 20 mM solutions were ultrasonicated in water for 10 min and then dispersed on 300 mesh carbon-coated copper grid.
# Chang liver cell line = assay: Cell viability evaluation (Cytell Cell Imaging); format: cell-based; settings: 50% inhibition of cell growth, human hepatocytes, read-out: IC50 on Chang Liver Cells Line
# Procedure: Cell viability of human hepatocytes cells (Chang liver cell line from the N. F. Gamaleya Research Center of Epidemiology and Microbiology) toward macrocycles was determined by means of multifunctional system Cytell Cell Imaging (GE Healthcare, Issaquah, WA, USA) using application Cell Viability BioApp and Automated Imaging BioApp. The cells were dispersed on a 96-well plate at a concentration of 200,000 cells/mL and cultivated in CO2-incubator at 37 °C. Next, the culture medium was sampled in 24 h, and 150 μL of the studied dispersions was added to each well. The experiments were repeated three times. Intact cells cultivated simultaneously with the studied ones served as a reference. The fraction of the grown-up cells was expressed in % vs. reference cells. Degree of cell growth inhibition under the influence of testing agent was calculated by equation:N (%) = (1 − Exp/Control) × 100(1) where Exp is the quantity of uninhibited cells in sample studied, Control is the quantity of uninhibited cells in control sample. Then the IC50 (concentration which caused 50% cell growth inhibition) was determined from curve of cell cultural growth versus macrocycle concentration. The experiments were repeated three times and results are presented as the mean ± standard deviation.
# [4] = Zeta potential by electrophoretic light scattering; format: physicochemical; settings: water solution, 25 °C; GCR-2 in the presence of two-fold excess MG; concentration not given
# Procedure: Formation of aggregates with increasing GCR-1 concentration was confirmed by the DLS method. In aqueous 1 mM GCR-1 solutions the formation of small particles with hydrodynamic diameter of 2.9 nm was observed (Figure 4a). This size is much more similar to that of a single molecule that to that of an aggregate. However, the bimodal distribution with peaks at 120 nm and 504 nm occurs for solution with 50 mM GCR-1. This could be attributed to the formation different stacked structures by head-to-head or head-to-tail interaction between GCR-1 molecules. […] Zeta-potential of GCR-1 aggregates obtained by electrophoretic light scattering in solution was −56.8 mV that correspond to sufficiently stable systems. Negative value was caused by dissociation of sulfonate groups of GCR-1 lower rim in aqueous medium. To confirm the morphology and dimension of the GCR-1 aggregates, TEM image was recorded (Figure 5a), where it was shown that GCR-1 molecules were assembled into non-well-defined large nanoparticles. The probable reason for such high polydispersity is multiple supramolecular interactions, such as Coulombic interactions between oppositely charged rims through head-to-tail self-assembly, hydrogen bonding between hydroxyl groups by head-to-head joining and π-π stacking between aromatic units of neighboring macrocycles (Figure 6a). […]
structure (smiles),measurement,setting,value
"CC1c2cc(c(O)c(CN(C)C[C@@H](O)[C@H](O)[C@@H](O)[C@@H](O)CO)c2O)C(C)c2cc(c(O)c(CN(C)C[C@@H](O)[C@H](O)[C@@H](O)[C@@H](O)CO)c2O)C(C)c2cc(c(O)c(CN(C)C[C@@H](O)[C@H](O)[C@@H](O)[C@@H](O)CO)c2O)C(C)c2cc1c(O)c(CN(C)C[C@@H](O)[C@H](O)[C@@H](O)[C@@H](O)CO)c2O (stereo partly drawn) [GCR-2, N-methyl-D-glucaminemethyl methylcalix[4]resorcinarene]",MIC,C.albicans 855–653 [1],> 500 µM
same,MFC,C.albicans 855–653 [2],> 500 µM
same,Diameter of nanostructures by TEM,[3],ca. 5 ± 2 nm
same,melting point,,> 350 °C
same,IC50,Chang liver cell line,> 100 µM
same,Zeta-potential of aggregates,[4],−17.4 mV
